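Values below derive from 48-hour exposures of cells grown in 96-well plates, with endpoints linearly interpolated between the two concentrations bracketing the appropriate inhibition level. GI50 = concentration required for 50% inhibition of growth. At the TGI there is no net growth.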
Legend:
Test in all cases: NCI tumour cell line growth inhibition, 48 h
[1] = system: 786-0 renal
[2] = system: A498 renal
[3] = system: A549 NSCLC
[4] = system: ACHN renal
[5] = system: BT-549 breast
[6] = system: CAKI-1 renal
[7] = system: CCRF-CEM leukemia
[8] = system: COLO 205 colon
[9] = system: DU-145 prostate
[10] = system: EKVX NSCLC
[11] = system: HCC-2998 colon
[12] = system: HCT-116 colon
[13] = system: HCT-15 colon
[14] = system: HL-60(TB) leukemia
[15] = system: HOP-62 NSCLC
[16] = system: HOP-92 NSCLC
[17] = system: HT29 colon
[18] = system: IGROV1 ovarian
[19] = system: K-562 leukemia
[20] = system: KM12 colon
[21] = system: LOX IMVI melanoma
[22] = system: M14 melanoma
[23] = system: MALME-3M melanoma
[24] = system: MCF7 breast
[25] = system: MDA-MB-231 breast
[26] = system: MDA-MB-435
[27] = system: MDA-MB-468 breast
[28] = system: MOLT-4 leukemia
[29] = system: NCI-H226 lung
[30] = system: NCI-H23 lung
[31] = system: NCI-H460 lung
[32] = system: NCI-H522 lung
[33] = system: OVCAR-3 ovarian
[34] = system: OVCAR-4 ovarian
[35] = system: OVCAR-5 ovarian
[36] = system: OVCAR-8 ovarian
[37] = system: PC-3 prostate
[38] = system: RXF 393 renal
[39] = system: SF-268 CNS
[40] = system: SF-295 CNS
[41] = system: SF-539 CNS
[42] = system: SK-MEL-2 melanoma
[43] = system: SK-MEL-28 melanoma
[44] = system: SK-MEL-5 melanoma
[45] = system: SK-OV-3 ovarian
[46] = system: SN12C renal
[47] = system: SNB-19 CNS
[48] = system: SNB-75 CNS
[49] = system: SR leukemia
[50] = system: SW-620 colon
[51] = system: T-47D breast
[52] = system: TK-10 renal
[53] = system: U251 CNS
[54] = system: UACC-257 melanoma
[55] = system: UACC-62 melanoma
[56] = system: UO-31 renal

## C=C1CC[C@@H]2[C@]3(C)COC(c4cn[nH]c4-c4ccc(OC)cc4)O[C@@H]3CC[C@@]2(C)[C@@H]1C/C=C1/C(=O)OCC1O (some centres not stated)
[1]
  GI50: 1.92 µM
  TGI: 3.6 µM
[2]
  GI50: 17 µM
  TGI: 50.5 µM
[3]
  GI50: 3.32 µM
  TGI: 19.5 µM
[4]
  GI50: 3.52 µM
  TGI: 14.1 µM
[5]
  GI50: 2.36 µM
  TGI: 7.22 µM
[6]
  GI50: 2.96 µM
  TGI: 12.1 µM
[7]
  GI50: 2.08 µM
  TGI: 6.9 µM
[8]
  GI50: 1.95 µM
  TGI: 3.73 µM
[9]
  GI50: 3.23 µM
  TGI: 12.1 µM
[10]
  GI50: 2.66 µM
  TGI: 10.5 µM
[11]
  GI50: 2.87 µM
  TGI: 8.28 µM
[12]
  GI50: 1.86 µM
  TGI: 3.57 µM
[13]
  GI50: 2.54 µM
  TGI: 8.37 µM
[14]
  GI50: 2.69 µM
  TGI: 14.7 µM
[15]
  GI50: 3.44 µM
  TGI: 14.2 µM
[16]
  GI50: 2.02 µM
  TGI: 5 µM
[17]
  GI50: 2.86 µM
  TGI: 7.91 µM
[18]
  GI50: 3.98 µM
  TGI: 20 µM
[19]
  GI50: 2.71 µM
  TGI: > 100 µM
[20]
  GI50: 2.38 µM
  TGI: 5.43 µM
[21]
  GI50: 1.73 µM
  TGI: 3.42 µM
[22]
  GI50: 3.14 µM
  TGI: 13.2 µM
[23]
  GI50: 1.74 µM
  TGI: 3.64 µM
[24]
  GI50: 2.48 µM
  TGI: 11.8 µM
[25]
  GI50: 2.39 µM
  TGI: 5.48 µM
[26]
  GI50: 2.24 µM
  TGI: 6.42 µM
[27]
  GI50: 2.17 µM
  TGI: 5.6 µM
[28]
  GI50: 2.21 µM
  TGI: > 100 µM
[29]
  GI50: 3.58 µM
  TGI: 18.4 µM
[30]
  GI50: 2.51 µM
  TGI: 7.69 µM
[31]
  GI50: 1.91 µM
  TGI: 3.9 µM
[32]
  GI50: 2.49 µM
  TGI: 7.81 µM
[33]
  GI50: 2.27 µM
  TGI: 5.87 µM
[34]
  GI50: 2.96 µM
  TGI: > 100 µM
[35]
  GI50: 3.9 µM
  TGI: 13.4 µM
[36]
  GI50: 3.34 µM
  TGI: > 100 µM
[37]
  GI50: 2.98 µM
  TGI: > 100 µM
[38]
  GI50: 1.74 µM
  TGI: 3.4 µM
[39]
  GI50: 3.25 µM
  TGI: > 100 µM
[40]
  GI50: 2.13 µM
  TGI: 4.77 µM
[41]
  GI50: 2.03 µM
  TGI: 4.36 µM
[42]
  GI50: 3.97 µM
  TGI: 17.8 µM
[43]
  GI50: 2.54 µM
  TGI: 5.91 µM
[44]
  GI50: 1.52 µM
  TGI: 2.95 µM
[45]
  GI50: 10.5 µM
  TGI: 67.4 µM
[46]
  GI50: 3.54 µM
  TGI: 16.5 µM
[47]
  GI50: 4.42 µM
  TGI: 19.4 µM
[48]
  GI50: 1.75 µM
  TGI: 5.86 µM
[49]
  GI50: 2.87 µM
  TGI: > 100 µM
[50]
  GI50: 2.29 µM
  TGI: 5.56 µM
[51]
  GI50: 3.25 µM
  TGI: > 100 µM
[52]
  GI50: 4.12 µM
  TGI: 16.7 µM
[53]
  GI50: 2.77 µM
  TGI: 10.7 µM
[54]
  GI50: 2.46 µM
  TGI: 8.92 µM
[55]
  GI50: 1.68 µM
  TGI: 4.06 µM
[56]
  GI50: 1.7 µM
  TGI: 3.91 µM

Reference: PubChem BioAssay (NCI)
